The values below come from ChEMBL document CHEMBL5120808, “6-Aryl-quinazolines as novel GABAB receptor positive allosteric modulators” (Bioorg Med Chem Lett, 2022).

One data set deals with GABA-B receptor (Homo sapiens, UniProt O75899+Q9UBS5). Put plainly: Positive allosteric modulation of GABA-B receptor (unknown origin) assessed as stimulation of [35S]GTPgammaS binding by [35S]GTPgammaS binding assay. In kind it is functional.
Data set [1] in a line: Metabolic stability in mouse assessed as parent compound remaining. Format: ADME.
The nature of data set [2]: Metabolic stability in rat assessed as parent compound remaining. Format: ADME.
A short description of data set [3]: Metabolic stability in human assessed as parent compound remaining. Format: ADME.
In data set [4] the test system is Mus musculus. Put plainly: Potentiation of baclofen induced skeletal muscle relaxation in po dosed NMRI mouse assessed as effective dose by Litchfield-Wilcoxon method. In kind it is functional.
Data set [5] concerns Mus musculus. Put plainly: Potentiation of baclofen induced skeletal muscle relaxation in NMRI mouse at 3 to 30 mg/kg, po by traction test. Format: functional, organism-based. The following applies: dose 3-30 mg/kg.
The subject of data set [6] is Mus musculus. Put plainly: Potentiation of baclofen induced loss of righting reflex in po dosed NMRI mouse assessed as effective dose by Litchfield-Wilcoxon method. In kind it is functional.
The nature of data set [7]: AUC (0 to 24 hrs) in NMRI mouse plasma at 10 mg/kg, po measured up to 24 hrs. Further details: time < 24 hrs, dose 10 mg/kg, route po. In kind it is ADME, organism-based.
The nature of data set [8]: Cmax in NMRI mouse plasma at 10 mg/kg, po measured up to 24 hrs. The arrangement: dose 10 mg/kg, time < 24 hrs, route po. In kind it is ADME, organism-based.
The nature of data set [9]: Tmax in NMRI mouse plasma at 10 mg/kg, po measured up to 24 hrs. Format: ADME, organism-based.
Data set [10] is described as follows: AUC (0 to 24 hrs) in NMRI mouse brain at 10 mg/kg, po measured up to 24 hrs. In kind it is ADME, organism-based. The arrangement: time < 24 hrs, dose 10 mg/kg, route po.
Data set [11] is described as follows: Cmax in NMRI mouse brain at 10 mg/kg, po measured up to 24 hrs. Format: ADME, organism-based. The arrangement: time < 24 hrs, dose 10 mg/kg, route po.
Data set [12] can be described thus: Tmax in NMRI mouse brain at 10 mg/kg, po measured up to 24 hrs. Format: ADME, organism-based.
Data set [13] in a line: Half life in NMRI mouse brain at 10 mg/kg, po measured up to 24 hrs. Format: ADME, organism-based.

The structures appear in SMILES notation. Calls of active or inactive are those of the source. The calls are words filed in the database; no cut-off is given here.

GABA-B receptor, sequence (Q9UBS5 whole entry): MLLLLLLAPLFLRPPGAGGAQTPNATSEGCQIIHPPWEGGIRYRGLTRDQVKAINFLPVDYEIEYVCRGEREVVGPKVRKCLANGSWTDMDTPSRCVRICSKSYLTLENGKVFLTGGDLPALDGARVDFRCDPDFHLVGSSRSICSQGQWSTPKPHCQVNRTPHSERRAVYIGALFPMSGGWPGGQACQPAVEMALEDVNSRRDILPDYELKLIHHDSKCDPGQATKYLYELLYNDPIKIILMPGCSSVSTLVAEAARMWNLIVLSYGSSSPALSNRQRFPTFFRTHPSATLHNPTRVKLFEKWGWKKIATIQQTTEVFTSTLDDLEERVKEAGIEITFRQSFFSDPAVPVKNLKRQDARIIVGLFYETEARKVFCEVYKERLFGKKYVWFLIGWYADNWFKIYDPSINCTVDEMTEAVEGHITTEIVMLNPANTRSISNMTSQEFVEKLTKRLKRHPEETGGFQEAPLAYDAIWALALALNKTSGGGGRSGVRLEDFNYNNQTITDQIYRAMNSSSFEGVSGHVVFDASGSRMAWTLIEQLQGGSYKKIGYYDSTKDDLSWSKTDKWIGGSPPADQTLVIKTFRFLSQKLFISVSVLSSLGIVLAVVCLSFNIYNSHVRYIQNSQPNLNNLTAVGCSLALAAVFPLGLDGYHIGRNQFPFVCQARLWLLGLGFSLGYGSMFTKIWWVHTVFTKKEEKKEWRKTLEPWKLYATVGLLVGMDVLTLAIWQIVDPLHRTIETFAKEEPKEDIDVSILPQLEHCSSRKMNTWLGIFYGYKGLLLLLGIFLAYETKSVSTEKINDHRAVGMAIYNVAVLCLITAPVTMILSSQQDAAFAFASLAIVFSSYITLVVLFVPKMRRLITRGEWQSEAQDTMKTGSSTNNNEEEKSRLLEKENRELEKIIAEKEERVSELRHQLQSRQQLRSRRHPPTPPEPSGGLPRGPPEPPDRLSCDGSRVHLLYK
GABA-B receptor, sequence (O75899 whole entry): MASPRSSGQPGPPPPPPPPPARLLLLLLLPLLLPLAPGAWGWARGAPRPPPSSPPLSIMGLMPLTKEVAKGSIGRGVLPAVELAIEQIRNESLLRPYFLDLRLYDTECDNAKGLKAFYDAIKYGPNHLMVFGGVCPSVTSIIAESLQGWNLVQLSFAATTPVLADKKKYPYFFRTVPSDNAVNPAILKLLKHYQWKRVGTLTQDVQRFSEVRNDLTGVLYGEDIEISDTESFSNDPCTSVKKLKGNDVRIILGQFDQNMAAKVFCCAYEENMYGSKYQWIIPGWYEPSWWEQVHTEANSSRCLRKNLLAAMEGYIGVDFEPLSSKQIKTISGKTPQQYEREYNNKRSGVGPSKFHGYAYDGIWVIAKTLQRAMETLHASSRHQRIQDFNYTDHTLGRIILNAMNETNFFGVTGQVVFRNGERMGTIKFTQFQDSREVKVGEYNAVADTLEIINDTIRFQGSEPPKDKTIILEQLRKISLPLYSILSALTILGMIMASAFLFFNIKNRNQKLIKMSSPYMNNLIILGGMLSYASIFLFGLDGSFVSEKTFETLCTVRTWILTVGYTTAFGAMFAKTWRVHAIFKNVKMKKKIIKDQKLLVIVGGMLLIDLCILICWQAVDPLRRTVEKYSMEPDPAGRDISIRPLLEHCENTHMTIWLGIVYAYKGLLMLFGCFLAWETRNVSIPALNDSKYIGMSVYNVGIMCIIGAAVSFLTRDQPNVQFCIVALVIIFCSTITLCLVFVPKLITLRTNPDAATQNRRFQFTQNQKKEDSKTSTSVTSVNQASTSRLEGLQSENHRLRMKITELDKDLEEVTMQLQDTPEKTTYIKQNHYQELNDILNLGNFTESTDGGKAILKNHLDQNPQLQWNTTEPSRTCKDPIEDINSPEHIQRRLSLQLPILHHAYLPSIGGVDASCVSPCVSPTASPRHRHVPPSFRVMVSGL

Turning to `FC(F)(F)c1cccc(-c2ccc3nc(Cl)nc(N[C@@H]4C[C@H]5CC[C@@H]4C5)c3c2)c1`, the 50% effective concentration (EC50) on GABA-B receptor was 90 nM. In addition, the Stability in [1] is 63%; in [2], 67%; in data set [3], 58%.

On to `Cc1nc(N[C@@H]2C[C@H]3CC[C@@H]2C3)c2cc(-c3ccc(Cl)cc3)ccc2n1`, for which the EC50 on GABA-B receptor stood at 444 nM. In addition, the Stability worked out at 39% in [1], 49% in data set [2] and 47% in [3]. Moreover, the 50% effective dose (ED50) in the data set on Mus musculus [4] is 12.7 mg/kg.

As to `Clc1nc(N[C@@H]2C[C@H]3CC[C@@H]2C3)c2cc(-c3ccc(Cl)c(Cl)c3)ccc2n1`, the EC50 on GABA-B receptor is 341 nM. Also, the Stability in [1] is 67%; in data set [2] it was 59%; in data set [3] it was 69%.

Take `Fc1ccc(-c2ccc3nc(Cl)nc(N[C@@H]4C[C@H]5CC[C@@H]4C5)c3c2)cc1`: at GABA-B receptor, the half-maximal effective concentration (EC50) amounted to 294 nM. Besides, the Stability was found to be 53% in data set [1], 36% in data set [2] and 47% in data set [3].

On to `Cc1nc(N[C@@H]2C[C@H]3CC[C@@H]2C3)c2cc(-c3cc(Cl)cc(Cl)c3)ccc2n1`, for which, on GABA-B receptor, the concentration giving a half-maximal response (EC50) was 97 nM. Also, the figures for the Stability in [1], in [2] and in [3] were 44%, 37% and 62%, respectively.

In the case of `Cc1nc(N[C@@H]2C[C@H]3CC[C@@H]2C3)c2cc(-c3ccc(C(F)(F)F)cc3)ccc2n1`, the concentration for a half-maximal effect (EC50) on GABA-B receptor came out at 771 nM. Also, the Stability came to 66% in data set [1], 77% in [2] and 66% in data set [3].

On to `Cc1nc(N[C@@H]2C[C@H]3CC[C@@H]2C3)c2cc(-c3ccccc3Cl)ccc2n1`, for which, on GABA-B receptor, the half-maximal effective concentration (EC50) amounted to 496 nM. The Stability in data set [1] is recorded as 23%; in [2] it was 31%; in [3] it was 57%.

With `Cc1ncc(-c2ccc(C(F)(F)F)cc2)c(N[C@@H]2C[C@H]3CC[C@@H]2C3)n1`, the Stability in data set [1] turned out to be 42%; in data set [2], 24%; in data set [3], 65%.

As to `Clc1ccc(-c2ccc3nc(Cl)nc(N[C@@H]4C[C@H]5CC[C@@H]4C5)c3c2)cc1`, at GABA-B receptor, the concentration giving a half-maximal response (EC50) is 208 nM. The results for the Stability in data set [1], in [2] and in [3] were 40%, 85% and 46%, respectively. The median effective dose (ED50) in the data set with Mus musculus [4] was 25.6 mg/kg.

Regarding `Cc1nc(N[C@@H]2C[C@H]3CC[C@@H]2C3)c2cc(-c3cccc(Cl)c3)ccc2n1`, the half-maximal effective concentration (EC50) at GABA-B receptor was 199 nM. For the same compound, the Stability in data set [1] came to 27%; in data set [2], 23%; in data set [3], 50%.

As to `Cc1nc(N[C@@H]2C[C@H]3CC[C@@H]2C3)c2cc(-c3ccc(Cl)c(Cl)c3)ccc2n1`, the EC50 on GABA-B receptor is 419 nM. For the same compound, the Stability in data set [1] came out at 74%; in data set [2], 63%; in data set [3], 56%.

With `FC(F)(F)c1ccc(-c2ccc3nc(Cl)nc(N[C@@H]4C[C@H]5CC[C@@H]4C5)c3c2)cc1`, the EC50 on GABA-B receptor was 637 nM. For the same compound, the results for the Stability in data set [1], in data set [2] and in data set [3] were 95%, 84% and 73%, respectively. Besides, the outcome in the data set on Mus musculus [5] was Active. In addition, the ED50 is 8.1 mg/kg in the data set on Mus musculus [4] and 2.9 mg/kg in the data set on Mus musculus [6]. The AUC(0-t) at 24 h came out at 4660 ng·h/mL in data set [7] and 852 ng·h/mL in data set [10]. In addition, the highest concentration (Cmax) worked out at 586 ng/mL in data set [8] and 100 ng/mL in data set [11]. Besides, the values for the Tmax in data set [9] and in [12] were 1 h and 2 h, respectively. In addition, in data set [13], the half-life is 8.94 h.

Consider `Clc1cc(Cl)cc(-c2ccc3nc(Cl)nc(N[C@@H]4C[C@H]5CC[C@@H]4C5)c3c2)c1`, for which the Stability in data set [1] turned out to be 62%; in data set [2], 76%; in data set [3], 85%.

On to `Cc1nc(N[C@@H]2C[C@H]3CC[C@@H]2C3)c2cc(-c3cccc(C(F)(F)F)c3)ccc2n1`, for which the EC50 on GABA-B receptor was found to be 142 nM. In addition, the figures for the Stability in data set [1], in data set [2] and in [3] were 41%, 41% and 75%, respectively.
